Data as given in publication PMC3432122, “An Antitubulin Agent BCFMT Inhibits Proliferation of Cancer Cells and Induces Cell Death by Inhibiting Microtubule Dynamics” (PLoS ONE, 2012).

Molecular target: T1, tubulin
T1 construct: purified tubulin (alpha/beta heterodimer)
Test: tryptophan fluorescence quenching titration; competition with BODIPY FL-vinblastine (Ki […])
Format: binding

SMILES: O=C1NC(=S)S/C1=C\c1ccc(-c2ccc(Br)c(Cl)c2)o1 [BCFMT, (Z)-5-((5-(4-bromo-3-chlorophenyl)furan-2-yl)methylene)-2-thioxothiazolidin-4-one]
- Kd: 8.3 ± 1.8 µM
